Results published in US20250295646A1, “METHODS OF USE OF T-TYPE CALCIUM CHANNEL MODULATORS” (Praxis Precision Medicines, Inc., priority 2022, published 2025).

System: adult patients with essential tremor
Assay: Example 16: accelerometer-based (Kinesia ONE) TETRAS upper limb score
Format: in vivo, human
Text: Accelerometer (Kinesia ONE) TETRAS assessments were generally consistent with those conducted at the clinic. Accelerometer upper limb score values are summarized for Part A, the open-label titration phase of Part B, and the randomized withdrawal phase of Part B in Table 37, Table 38, and Table 39, respectively

[1] = Part B Open-Label Titration (N = 17), Day 42, Post - dose
[2] = Part B Open-Label Titration (N = 17), Day 42, Pre - dose
[3] = Part B Open-Label Titration, pre-dose baseline upper limb scores ≥10 (N = 12), Day 1, Post - dose
[4] = Part B Open-Label Titration, pre-dose baseline upper limb scores ≥10 (N = 12), Day 7
[5] = Part B Open-Label Titration, pre-dose baseline upper limb scores ≥10 (N = 12), Day 21
[6] = Part B Open-Label Titration, pre-dose baseline upper limb scores ≥10 (N = 12), Day 42, Post - dose
[7] = Part B Open-Label Titration, pre-dose baseline upper limb scores ≥10 (N = 12), Day 42, Pre - dose
[8] = Part B Randomized Withdrawal, Formula (I) group (N = 6), Day 1, Post - dose
[9] = Part B Randomized Withdrawal, Formula (I) group (N = 6), Day 7
[10] = Part B Randomized Withdrawal, Formula (I) group (N = 6), Day 21
[11] = Part B Randomized Withdrawal, Formula (I) group (N = 6), Day 42, Post - dose
[12] = Part B Randomized Withdrawal, Formula (I) group (N = 6), Day 42, Pre - dose
[13] = Part B Randomized Withdrawal, Formula (I) group (N = 6), Day 42 Post - dose (Randomization Baseline)
[14] = Part B Randomized Withdrawal, Formula (I) group (N = 6), Day 56
[15] = Part B Randomized Withdrawal, Formula (I) group (N = 6), Day 70
[16] = Part B Randomized Withdrawal, Day 56
[17] = Part B Randomized Withdrawal, Day 70

SMILES: CC(C)(C)NC(=O)CN1CCC(CNC(=O)c2cc(F)cc(Cl)c2)CC1 [compound of formula (I), N-((1-(2-(tert-butylamino)-2-oxoethyl)piperidin-4-yl)methyl)-3-chloro-5-fluorobenzamide]
- Percentage Change from Baseline in Tremor Amplitude, Median (Part B Open-Label Titration (N = 17), Day 21): −17.46%
- Accelerometer-Based Upper Limb Score, Change from Baseline, LS Mean (SE) [1]: −1.798 (0.4511)
- Accelerometer-Based Upper Limb Score, Change from Baseline, Mean (SD) [1]: −1.73 (2.009)
- Accelerometer-Based Upper Limb Score, Change from Baseline, Median [1]: −2.40
- Accelerometer-Based Upper Limb Score, observed, Mean (SD) [1]: 9.44 (2.857)
- Accelerometer-Based Upper Limb Score, observed, Median [1]: 8.60
- LS Mean Percentage Change in Tremor Amplitude [1]: −29.2%
- Percentage Change from Baseline in Tremor Amplitude, Mean (SD) [1]: −24.06 (27.567) %
- Percentage Change from Baseline in Tremor Amplitude, Median [1]: −36.90%
- Accelerometer-Based Upper Limb Score, Change from Baseline, LS Mean (SE) [2]: −1.766 (0.5175)
- Accelerometer-Based Upper Limb Score, Change from Baseline, Mean (SD) [2]: −1.70 (1.829)
- Accelerometer-Based Upper Limb Score, Change from Baseline, Median [2]: −2.00
- Accelerometer-Based Upper Limb Score, observed, Mean (SD) [2]: 9.48 (3.369)
- Accelerometer-Based Upper Limb Score, observed, Median [2]: 9.65
- LS Mean Percentage Change in Tremor Amplitude [2]: −28.7%
- Percentage Change from Baseline in Tremor Amplitude, Mean (SD) [2]: −24.79 (26.969) %
- Percentage Change from Baseline in Tremor Amplitude, Median [2]: −31.87%
- Accelerometer-Based Upper Limb Score, Change from Baseline, LS Mean (SE) [3]: −0.764 (0.4030)
- Accelerometer-Based Upper Limb Score, Change from Baseline, Mean (SD) [3]: −0.75 (1.696)
- Accelerometer-Based Upper Limb Score, Change from Baseline, Median [3]: −0.93
- Accelerometer-Based Upper Limb Score, observed, Mean (SD) [3]: 11.00 (2.303)
- Accelerometer-Based Upper Limb Score, observed, Median [3]: 10.95
- LS Mean Percentage Change in Tremor Amplitude [3]: −13.6%
- Percentage Change from Baseline in Tremor Amplitude, Mean (SD) [3]: −11.30 (25.126) %
- Percentage Change from Baseline in Tremor Amplitude, Median [3]: −16.10%
- Accelerometer-Based Upper Limb Score, Change from Baseline, LS Mean (SE) [4]: −1.677 (0.4345)
- Accelerometer-Based Upper Limb Score, Change from Baseline, Mean (SD) [4]: −2.03 (1.939)
- Accelerometer-Based Upper Limb Score, Change from Baseline, Median [4]: −2.05
- Accelerometer-Based Upper Limb Score, observed, Mean (SD) [4]: 9.96 (3.151)
- Accelerometer-Based Upper Limb Score, observed, Median [4]: 11.10
- LS Mean Percentage Change in Tremor Amplitude [4]: −27.5%
- Percentage Change from Baseline in Tremor Amplitude, Mean (SD) [4]: −28.60 (24.257) %
- Percentage Change from Baseline in Tremor Amplitude, Median [4]: −32.52%
- Accelerometer-Based Upper Limb Score, Change from Baseline, LS Mean (SE) [5]: −2.295 (0.6539)
- Accelerometer-Based Upper Limb Score, Change from Baseline, Mean (SD) [5]: −2.04 (2.248)
- Accelerometer-Based Upper Limb Score, Change from Baseline, Median [5]: −1.48
- Accelerometer-Based Upper Limb Score, observed, Mean (SD) [5]: 9.91 (2.999)
- Accelerometer-Based Upper Limb Score, observed, Median [5]: 10.98
- LS Mean Percentage Change in Tremor Amplitude [5]: −35.6%
- Percentage Change from Baseline in Tremor Amplitude, Mean (SD) [5]: −27.37 (27.794) %
- Percentage Change from Baseline in Tremor Amplitude, Median [5]: −24.34%
- Accelerometer-Based Upper Limb Score, Change from Baseline, LS Mean (SE) [6]: −1.818 (0.5342)
- Accelerometer-Based Upper Limb Score, Change from Baseline, Mean (SD) [6]: −1.87 (2.027)
- Accelerometer-Based Upper Limb Score, Change from Baseline, Median [6]: −2.40
- Accelerometer-Based Upper Limb Score, observed, Mean (SD) [6]: 9.93 (2.878)
- Accelerometer-Based Upper Limb Score, observed, Median [6]: 10.40
- LS Mean Percentage Change in Tremor Amplitude [6]: −29.4%
- Percentage Change from Baseline in Tremor Amplitude, Mean (SD) [6]: −26.06 (27.100) %
- Percentage Change from Baseline in Tremor Amplitude, Median [6]: −36.90%
- Accelerometer-Based Upper Limb Score, Change from Baseline, LS Mean (SE) [7]: −1.559 (0.5803)
- Accelerometer-Based Upper Limb Score, Change from Baseline, Mean (SD) [7]: −1.57 (1.914)
- Accelerometer-Based Upper Limb Score, Change from Baseline, Median [7]: −2.00
- Accelerometer-Based Upper Limb Score, observed, Mean (SD) [7]: 10.23 (3.244)
- Accelerometer-Based Upper Limb Score, observed, Median [7]: 11.15
- LS Mean Percentage Change in Tremor Amplitude [7]: −25.9%
- Percentage Change from Baseline in Tremor Amplitude, Mean (SD) [7]: −22.96 (28.661) %
- Percentage Change from Baseline in Tremor Amplitude, Median [7]: −31.87%
- Accelerometer-Based Upper Limb Score, Change from Baseline, Mean (SD) [8]: −0.08 (1.710)
- Accelerometer-Based Upper Limb Score, Change from Baseline, Median [8]: −0.78
- Accelerometer-Based Upper Limb Score, observed, Mean (SD) [8]: 9.98 (2.321)
- Accelerometer-Based Upper Limb Score, observed, Median [8]: 10.78
- Percentage Change from Baseline in Tremor Amplitude, Mean (SD) [8]: −2.18 (27.539) %
- Percentage Change from Baseline in Tremor Amplitude, Median [8]: −13.59%
- Accelerometer-Based Upper Limb Score, Change from Baseline, Mean (SD) [9]: −0.79 (1.542)
- Accelerometer-Based Upper Limb Score, Change from Baseline, Median [9]: −1.20
- Accelerometer-Based Upper Limb Score, observed, Mean (SD) [9]: 9.55 (2.774)
- Accelerometer-Based Upper Limb Score, observed, Median [9]: 10.15
- Percentage Change from Baseline in Tremor Amplitude, Mean (SD) [9]: −12.59 (25.197) %
- Percentage Change from Baseline in Tremor Amplitude, Median [9]: −19.95%
- Accelerometer-Based Upper Limb Score, Change from Baseline, Mean (SD) [10]: −0.56 (1.273)
- Accelerometer-Based Upper Limb Score, Change from Baseline, Median [10]: −0.55
- Accelerometer-Based Upper Limb Score, observed, Mean (SD) [10]: 9.50 (2.760)
- Accelerometer-Based Upper Limb Score, observed, Median [10]: 9.88
- Percentage Change from Baseline in Tremor Amplitude, Mean (SD) [10]: −8.75 (21.102) %
- Percentage Change from Baseline in Tremor Amplitude, Median [10]: −9.68%
- Accelerometer-Based Upper Limb Score, Change from Baseline, Mean (SD) [11]: −0.68 (1.718)
- Accelerometer-Based Upper Limb Score, Change from Baseline, Median [11]: −0.23
- Percentage Change from Baseline in Tremor Amplitude, Mean (SD) [11]: −9.46 (26.746) %
- Percentage Change from Baseline in Tremor Amplitude, Median [11]: −3.87%
- Accelerometer-Based Upper Limb Score, Change from Baseline, Mean (SD) [12]: −0.73 (1.948)
- Accelerometer-Based Upper Limb Score, Change from Baseline, Median [12]: −0.98
- Accelerometer-Based Upper Limb Score, observed, Mean (SD) [12]: 9.33 (2.645)
- Accelerometer-Based Upper Limb Score, observed, Median [12]: 10.40
- Percentage Change from Baseline in Tremor Amplitude, Mean (SD) [12]: −10.75 (29.656) %
- Percentage Change from Baseline in Tremor Amplitude, Median [12]: −17.06%
- Accelerometer-Based Upper Limb Score, observed, Mean (SD) [13]: 9.38 (2.242)
- Accelerometer-Based Upper Limb Score, observed, Median [13]: 9.50
- Accelerometer-Based Upper Limb Score, Change from Baseline, Mean (SD) [14]: −0.55 (3.145)
- Accelerometer-Based Upper Limb Score, Change from Baseline, Median [14]: 0.62
- Accelerometer-Based Upper Limb Score, Change from Randomization, LS Mean (SE) [14]: 0.120 (0.9528)
- Accelerometer-Based Upper Limb Score, Change from Randomization, Mean (SD) [14]: 0.13 (1.495)
- Accelerometer-Based Upper Limb Score, Change from Randomization, Median [14]: 0.70
- Accelerometer-Based Upper Limb Score, observed, Mean (SD) [14]: 9.51 (2.810)
- Accelerometer-Based Upper Limb Score, observed, Median [14]: 9.75
- LS Mean Percentage Change in Tremor Amplitude (from Randomization) [14]: 2.3%
- Percentage Change from Baseline in Tremor Amplitude, Mean (SD) [14]: −4.53 (43.487) %
- Percentage Change from Baseline in Tremor Amplitude, Median [14]: 9.78%
- Percentage Change from Randomization in Tremor Amplitude, Mean (SD) [14]: 2.74 (24.404) %
- Percentage Change from Randomization in Tremor Amplitude, Median [14]: 12.37%
- Accelerometer-Based Upper Limb Score, Change from Baseline, Mean (SD) [15]: 1.30 (2.932)
- Accelerometer-Based Upper Limb Score, Change from Baseline, Median [15]: 0.35
- Accelerometer-Based Upper Limb Score, Change from Randomization, LS Mean (SE) [15]: 2.482 (1.0202)
- Accelerometer-Based Upper Limb Score, Change from Randomization, Mean (SD) [15]: 2.34 (2.050)
- Accelerometer-Based Upper Limb Score, Change from Randomization, Median [15]: 1.85
- Accelerometer-Based Upper Limb Score, observed, Mean (SD) [15]: 11.33 (2.653)
- Accelerometer-Based Upper Limb Score, observed, Median [15]: 12.40
- LS Mean Percentage Change in Tremor Amplitude (from Randomization) [15]: 37.9%
- Percentage Change from Baseline in Tremor Amplitude, Mean (SD) [15]: 14.62 (35.044) %
- Percentage Change from Baseline in Tremor Amplitude, Median [15]: 6.50%
- Percentage Change from Randomization in Tremor Amplitude, Mean (SD) [15]: 32.71 (20.891) %
- Percentage Change from Randomization in Tremor Amplitude, Median [15]: 29.88%
- LS Mean (SE) for Difference (Formula (I) - Placebo), change from Randomization in accelerometer-based upper limb score [16]: −2.227 (1.4135)
- LS Mean Percentage Change Difference (Formula (I) - Placebo) [16]: −34.0%
- LS Mean (SE) for Difference (Formula (I) - Placebo), change from Randomization in accelerometer-based upper limb score [17]: −0.356 (1.4667)
- LS Mean Percentage Change Difference (Formula (I) - Placebo) [17]: −4.1%
